# Values quoted from earlier work as cited in patent US20080234197A1, “Method(s) of stabilizing and potentiating the actions and administration of brain-derived neurotrophic factor (BDNF)” (priority 2007, published 2008).
# Where two headings read alike, the source gives them in different places.
# Assays:
# syntaxin 3 = settings: upon addition of fatty acid
# ARH explants = settings: 100 ng/ml for 72 hours, explants from neonatal mice, vs control
# [1] = test system: NPY and POMC neurons in the hypothalamus; settings: ob/ob mice, after administration
# db/db mice = settings: once or twice per week (70 mg/kg/wk) for 3 weeks, vs control
molecule,measurement,setting,value
"CCCCC/C=C\C/C=C\C/C=C\C/C=C\CCCC(=O)O [AA, arachidonic acid]",intrinsic tyrosine fluorescence of syntaxin 3,syntaxin 3,marked changes
same,dopamine uptake,"glioma cells; 20-160 microM, pre-incubated 15-30 min",stimulated
same,dopamine uptake,"glioma cells; 160 microM, longer pre-exposures 45-60 min",inhibited
same,expression of BDNF,"spinal cord neurons; 2-hour exposure, spinal cord neurons",markedly diminished
"CC/C=C\C/C=C\C/C=C\CCCCCCCC(=O)O [ALA, alpha-linolenic acid]",intrinsic tyrosine fluorescence of syntaxin 3,syntaxin 3,marked changes
"CCCCC/C=C\C/C=C\CCCCCCCC(=O)O [LA, cis-linoleic acid]",intrinsic tyrosine fluorescence of syntaxin 3,syntaxin 3,marked changes
CN1CCCC1c1cccnc1 (centres unmarked) [nicotine],protection against arachidonic acid-induced apoptosis of spinal cord neurons,spinal cord neurons,fully protected
same,prevention of arachidonic acid-induced decrease of BDNF expression,spinal cord neurons; pretreatment with 10-microM,fully prevented
CCCCCCCC/C=C\CCCCCCCC(=O)O [oleic acid],intrinsic tyrosine fluorescence of syntaxin 3,syntaxin 3,ineffective
leptin: adiposity hormone produced by the white adipose tissue,induction of neurites from ARH explants,ARH explants,significant induction of neurites
same,time to normalization of synaptic density,[1],≤ 6 h
"BDNF: brain-derived neurotrophic factor, a neurotrophin protein (protein, UniProt P23560 19-247, looked up) Neurotrophic factor BDNF …: APMKEANIRGQGGLAYPGVRTHGTLESVNGPKAGSRGLTSLADTFEHVIEELLDEDQKVRPNEENNKDADLYTSRVMLSSQVPLEPPLLFLLEEYKNYLDAANMSMRVRRHSDPARRGELSVCDSISEWVTAADKKTAVDMSGGTVTVLEKVPVSKGQLKQYFYETKCNPMGYTKEGCRGIDKRHWNSQCRTTQSYVRALTMDSKKRIGWRFIRIDTSCVCTLTIKRGR",blood glucose concentrations,db/db mice,significantly reduced
same,hemoglobin A1c (HbA1c),db/db mice,significantly reduced
same,protection against arachidonic acid-induced apoptosis of spinal cord neurons,spinal cord neurons,fully protected
